Test results as given in paper PMC8746528, “Novel Substituted Purine Isosteres: Synthesis, Structure-Activity Relationships and Cytotoxic Activity Evaluation” (Molecules, 2021).

Tests used:
[1] = test system: PC-3 prostate cancer cell line; assay: MTT cell viability assay, PC-3; assay type: cell-based; conditions: Homo sapiens, treatment 72 h and 96 h, mean ± SD of three experiments
Method: (§1) The human HCT116 colon cancer cell line and PC-3 prostate cancer cell line were obtained from the American Type Cell Culture (ATCC, Bethesda, Md). Both cell lines were grown in 75 cm^2 culture flasks at 37 °C in 5% CO2 using Roswell Park Memorial Institute 1640 medium (RPMI 1640, Gibco) and Dulbecco’s modified Eagle’s medium F/12 (DMEM/F-12, Gibco), respectively, containing 10% fetal bovine serum (FBS, Gibco). To test the inhibitory activities of compounds using a cell-based assay, MTT assay was performed for cell viability, as described previously. Briefly, HCT116 cells were plated at a density of 1500 per well, while PC-3 cells were plated at a density of 750 per well in a 96-well plate. After 24 h, cells were treated with the indicated compounds in a dose-dependent manner for 72 h and 96 h (all tested compounds provided clear solutions). MTT [3-(4,5-dimethylthiazol-2-yl)-2,5-diphenyltetrazolium bromide] (Sigma M-5655) was added at a final concentration of 0.5 mg/mL directly to each well for 4 h at 37 °C. The medium was aspirated, and the blue MTT formazan precipitate was dissolved in dimethyl sulfoxide (DMSO). Absorbance was determined in a Powerwave microplate spectrophotometer (Biotek Instruments, Inc.) at 540 nm. Viable cell numbers were determined by tetrazolium conversion to its formazan dye. The IC50 was calculated by Microsoft Excel equation and confirmed by GraphPad Prism (7.0). Each experiment was performed in triplicate and mean values ± SD are reported.

[2] = test system: HCT116 colon cancer cell line; assay: MTT cell viability assay, HCT116; assay type: cell-based; conditions: Homo sapiens, HCT-116, treatment 72 h and 96 h, mean ± SD of three experiments
Method: as §1

[3] = test system: normal human fibroblasts (WI-38); assay: MTT cytotoxicity towards normal fibroblasts; assay type: cell-based; conditions: WI-38; for IC50: MTT, normal human fibroblasts
Method: as §1
Figure 1 Dose-response curves for the administration of 14b, 26b, 35b on HCT116, PC-3 and WI-38 cells, as assessed by the MTT assay. Results are expressed as a percentage of controls. Statistical analysis was performed in triplicate determination at p < 0.05.

PC-3 cells [4] = assay: DNA staining (propidium iodide) and flow cytometric cell cycle analysis; assay type: cell-based, human; conditions: positive control at 25 nM, PC-3
Method: (§2) For cell cycle analysis, cell culture supernatants and attached cells were collected, centrifuged, washed in PBS, fixed in 50% ethanol and stained with an RNase-containing propidium iodide solution (50 μg/mL) (all reagents from Sigma). For cell apoptosis assay, cells were harvested and stained with Annexin V binding buffer, Annexin V–FITC and 7-AAD (Annexin V-FITC Apoptosis Detection Kit, BD Systems). DNA content was analyzed on a BD Accuri C6 Flow Cytometer using the BD CSampler software (BD Biosciences, USA). Non-apoptotic events were used to calculate the percentage of cells distributed in each phase. A p value < 0.05 was considered to be statistically significant (Student’s t-test).

PC-3 cells [5] = assay: Annexin V-7AAD apoptosis assay; assay type: cell-based, human; conditions: positive control at 25 nM, PC-3
Method: as §2

SMILES	melting point [°C]	IC50 [1] [µM]	IC50 [2] [µM]	cytotoxicity to normal cells in words [3]	IC50 [3] [µM]	G2/M phase blockade (PC-3 cells [4]) [%]	induction of apoptosis (PC-3 cells [5]) [%]
COc1ccc(Cn2cc(-c3ccccc3)c3ccnc(Nc4ccccc4)c32)cc1 [10a, 1-(4-Methoxybenzyl)-Ν,3-diphenyl-1H-pyrrolo[2,3-c]pyridin-7-amine]	180 to 181	> 10	2.4 ± 0.1	–	–	–	–
COc1ccc(Cn2cc(-c3cccc(F)c3)c3ccnc(Nc4ccccc4)c32)cc1 [10b, 3-(3-Fluorophenyl)-1-(4-methoxybenzyl)-Ν-phenyl-1H-pyrrolo[2,3-c]pyridin-7-amine]	165 to 166	> 10	> 10	–	–	–	–
COc1ccc(Cn2cc(-c3ccccc3)c3ccnc(Nc4cc(OC)c(OC)c(OC)c4)c32)cc1 [10c, 1-(4-Methoxybenzyl)-Ν-(3,4,5-trimethoxyphenyl)-3-phenyl-1H-pyrrolo[2,3-c]pyridin-7-amine]	136 to 137	9.8 ± 0.25	9.4 ± 0.53	–	–	–	–
COc1ccc(Cn2cc(-c3cccc(F)c3)c3ccnc(Nc4cc(OC)c(OC)c(OC)c4)c32)cc1 [10d, 3-(3-Fluorophenyl)-1-(4-methoxybenzyl)-Ν-(3,4,5-trimethoxyphenyl)-1H-pyrrolo[2,3-c]pyridin-7-amine]	93 to 94	> 10	> 10	–	–	–	–
COc1ccc(Cn2cc(-c3ccccc3)c3ccnc(N4CCN(C)CC4)c32)cc1 [13a, 1-(4-Methoxybenzyl)-7-(4-methylpiperazin-1-yl)-3-phenyl-1H-pyrrolo[2,3-c]pyridine]	88 to 89	7 ± 0.4	5 ± 0.18	–	–	–	–
COc1ccc(Cn2cc(-c3cccc(F)c3)c3ccnc(N4CCN(C)CC4)c32)cc1 [13b, 3-(3-Fluorophenyl)-1-(4-methoxybenzyl)-7-(4-methylpiperazin-1-yl)-1H-pyrrolo[2,3-c]pyridine]	–	9.3 ± 0.76	4.4 ± 0.35	–	–	–	–
c1ccc(Nc2nccc3c(-c4ccccc4)c[nH]c23)cc1 [14a, Ν,3-Diphenyl-1H-pyrrolo[2,3-c]pyridin-7-amine]	139 to 140	0.215 ± 0.025	5 ± 0.1	rather cytotoxic to normal cells	< 10	–	–
COc1cc(Nc2nccc3c(-c4ccccc4)c[nH]c23)cc(OC)c1OC [14c, N-(3,4,5-trimethoxyphenyl)-3-phenyl-1H-pyrrolo[2,3-c]pyridin-7-amine]	153 to 154	0.47 ± 0.12	0.72 ± 0.09	–	< 10	–	–
COc1cc(Nc2nccc3c(-c4cccc(F)c4)c[nH]c23)cc(OC)c1OC [14d, 3-(3-Fluorophenyl)-N-(3,4,5-trimethoxyphenyl)-1H-pyrrolo[2,3-c]pyridin-7-amine]	149 to 150	1.45 ± 0.25	3.9 ± 0.3	–	< 10	–	–
CN1CCN(c2nccc3c(-c4ccccc4)c[nH]c23)CC1 [14e, 7-(4-Methylpiperazin-1-yl)-3-phenyl-1H-pyrrolo[2,3-c]pyridine]	220 to 221	1.75 ± 0.25	2.85 ± 0.05	–	< 10	–	–
CN1CCN(c2nccc3c(-c4cccc(F)c4)c[nH]c23)CC1 [14f, 3-(3-Fluorophenyl)-7-(4-methylpiperazin-1-yl)-1H-pyrrolo[2,3-c]pyridine]	209 to 210	2.35 ± 0.05	2.35 ± 0.15	–	–	–	–
COc1ccc(Cn2cc(-c3ccccc3)c3ncnc(Nc4ccccc4)c32)cc1 [24a, 5-(4-Methoxybenzyl)-Ν,7-diphenyl-5H-pyrrolo[3,2-d]pyrimidin-4-amine]	57 to 58	> 10	> 10	–	–	–	–
COc1ccc(Cn2cc(-c3cccc(F)c3)c3ncnc(Nc4ccccc4)c32)cc1 [24b, 7-(3-Fluorophenyl)-5-(4-methoxybenzyl)-Ν-phenyl-5H-pyrrolo[3,2-d]pyrimidin-4-amine]	131 to 132	> 10	> 10	–	–	–	–
COc1ccc(Cn2cc(-c3ccccc3)c3ncnc(Nc4cc(OC)c(OC)c(OC)c4)c32)cc1 [24c, 5-(4-Methoxybenzyl)-N-(3,4,5-trimethoxyphenyl)-7-phenyl-5H-pyrrolo[3,2-d]pyrimidin-4-amine]	187 to 188	2.25 ± 0.35	4.5 ± 0.25	–	–	–	–
COc1ccc(Cn2cc(-c3cccc(F)c3)c3ncnc(Nc4cc(OC)c(OC)c(OC)c4)c32)cc1 [24d, 7-(3-Fluorophenyl)-5-(4-methoxybenzyl)-N-(3,4,5-trimethoxyphenyl)-5H-pyrrolo[3,2-d]pyrimidin-4-amine]	96 to 97	> 10	> 10	–	–	–	–
COc1ccc(Cn2cc(-c3ccccc3)c3ncnc(N4CCN(C)CC4)c32)cc1 [25a, 5-(4-Methoxybenzyl)-4-(4-methylpiperazin-1-yl)-7-phenyl-5H-pyrrolo[3,2-d]pyrimidine]	150 to 151	> 10	> 10	–	–	–	–
COc1ccc(Cn2cc(-c3cccc(F)c3)c3ncnc(N4CCN(C)CC4)c32)cc1 [25b, 7-(3-Fluorophenyl)-5-(4-methoxybenzyl)-4-(4-methylpiperazin-1-yl)-5H-pyrrolo[3,2-d]pyrimidine]	151 to 152	> 10	> 10	–	–	–	–
c1ccc(Nc2ncnc3c(-c4ccccc4)c[nH]c23)cc1 [26a, Ν,7-Diphenyl-5H-pyrrolo[3,2-d]pyrimidin-4-amine]	> 250	6.2 ± 0.23	2.75 ± 0.35	–	–	–	–
COc1cc(Nc2ncnc3c(-c4ccccc4)c[nH]c23)cc(OC)c1OC [26c, N-(3,4,5-Trimethoxyphenyl)-7-phenyl-5H-pyrrolo[3,2-d]pyrimidin-4-amine]	> 250	9.7 ± 0.5	7.8 ± 0.45	–	–	–	–
COc1cc(Nc2ncnc3c(-c4cccc(F)c4)c[nH]c23)cc(OC)c1OC [26d, 7-(3-Fluorophenyl)-N-(3,4,5-trimethoxyphenyl)-5H-pyrrolo[3,2-d]pyrimidin-4-amine]	139 to 140	5.9 ± 0.37	8.7 ± 0.58	–	–	–	–
CN1CCN(c2ncnc3c(-c4ccccc4)c[nH]c23)CC1 [26e, 4-(4-Methylpiperazin-1-yl)-7-phenyl-5H-pyrrolo[3,2-d]pyrimidine]	> 250	> 10	> 10	–	–	–	–
CN1CCN(c2ncnc3c(-c4cccc(F)c4)c[nH]c23)CC1 [26f, 7-(3-Fluorophenyl)-4-(4-methylpiperazin-1-yl)-5H-pyrrolo[3,2-d]pyrimidine]	–	> 10	> 10	–	–	–	–
c1ccc(Nc2ncnc3c(-c4ccccc4)n[nH]c23)cc1 [35a, N,3-Diphenyl-1H-pyrazolo[4,3-d]pyrimidin-7-amine]	–	4.7 ± 0.18	7.3 ± 0.62	–	–	–	–
COc1cc(Nc2ncnc3c(-c4ccccc4)n[nH]c23)cc(OC)c1OC [35c, 3-Phenyl-N-(3,4,5-trimethoxyphenyl)-1H-pyrazolo[4,3-d]pyrimidin-7-amine]	> 250	5.7 ± 0.4	4.7 ± 0.25	–	–	–	–
COc1cc(Nc2ncnc3c(-c4cccc(F)c4)n[nH]c23)cc(OC)c1OC [35d, 3-(3-Fluorophenyl)-N-(3,4,5-trimethoxyphenyl)-1H-pyrazolo[4,3-d]pyrimidin-7-amine]	> 250	> 10	> 10	–	–	–	–
CN1CCN(c2ncnc3c(-c4ccccc4)n[nH]c23)CC1 [35e, 7-(4-Methylpiperazin-1-yl)-3-phenyl-1H-pyrazolo[4,3-d]pyrimidine]	–	> 10	> 10	–	–	–	–
CN1CCN(c2ncnc3c(-c4cccc(F)c4)n[nH]c23)CC1 [35f, 3-(3-Fluorophenyl)-7-(4-methylpiperazin-1-yl)-1H-pyrazolo[4,3-d]pyrimidine]	–	> 10	> 10	–	–	–	–
COc1cccc2c1C(=O)c1c(O)c3c(c(O)c1C2=O)C[C@@](O)(C(=O)CO)C[C@@H]3O[C@H]1C[C@H](N)[C@H](O)[C@H](C)O1 [Dox, Doxorubicin, reference compound]	–	0.025 ± 0.004	0.095 ± 0.01	–	–	58	28
